# Test system: SK-MEL-28 cells (B-RAF V600E mutated)
# Assay: Inhibition of the proliferation of cultivated human melanoma cells (SK-MEL-28), AlamarBlue
# Type: cell-based
# Conditions: 72 h incubation
# Experimental: Measurement of the Inhibition of the Proliferation of Cultivated Human Melanoma Cells (SK-MEL-28, B-RAF^[…] Mutated)
# For measuring the proliferation of cultivated human tumour cells, cells of the melanoma cell line SK-MEL-28 [from American Type Culture Collection (ATCC)] are cultivated in MEM medium, supplemented with 10% foetal calf serum, 2% sodium bicarbonate, 1 mM sodium pyruvate, 1% non-essential amino acids (e.g. from Cambrex, # BE13-114E) and 2 mM glutamine. SK-MEL-28 cells are placed in 96-well flat bottomed dishes in a density of 2500 cells per well in supplemented MEM medium (see above) and incubated overnight in an incubator (at 37° C. and 5% CO2). The active substances are added to the cells in different concentrations, so that a concentration range of 50 μM to 3.2 nM is covered. If necessary the initial concentration of 50 μM is changed to 10 μM or 2 μM and further dilution is carried out accordingly (up to 0.6 nM or 0.12 nM). After an incubation period of a further 72 h 20 μL AlamarBlue reagent (Serotec Ltd., # BUF012B) are added to each well and the cells are incubated for a further 3-6 h. The colour change of the AlamarBlue reagent is determined in a fluorescence spectrophotometer (e.g. Gemini, Molecular Devices). EC50 values are calculated using a software program (GraphPadPrizm).
row,EC50 [nM],Compound
1,218,CCCS(=O)(=O)Nc1ccc(F)c(-n2cc(-c3cncc(OC(C)C)c3)nn2)c1F [Example I-34]
2,65,CCCS(=O)(=O)Nc1ccc(F)c(-n2cc(-c3cncc(N4CCN(C(C)(C)C)CC4)c3)nn2)c1Cl [Example I-76]
3,306,CCCS(=O)(=O)Nc1ccc(F)c(-n2cc(-c3cncc(-n4cnc(C(F)(F)F)c4)c3)nn2)c1F [Example I-57]
4,216,CCCS(=O)(=O)Nc1ccc(F)c(-n2cc(-c3cncc(OC)c3)nn2)c1F [Example I-2]
5,158,COc1cncc(-c2cn(-c3c(F)ccc(NS(=O)(=O)CC(C)C)c3F)nn2)c1 [Example I-25]
6,114,CCCS(=O)(=O)Nc1ccc(F)c(-n2cc(-c3cncc(-n4cnc(C)c4)c3)nn2)c1F [Example I-32]
7,9,O=S(=O)(Nc1ccc(F)c(-n2cc(-c3cncc(N4CCN(C5CC5)CC4)c3)nn2)c1F)c1ccoc1 [Example I-60]
8,1820,CCCS(=O)(=O)Nc1ccc(F)c(-n2cc(-c3cccnc3)nn2)c1F [Example I-15]
9,589,CCCS(=O)(=O)Nc1ccc(F)c(-n2cc(-c3cncc(OCCOC)c3)nn2)c1F [Example I-36]
10,113,CCCS(=O)(=O)Nc1ccc(F)c(-n2cc(-c3cncc(N4CCN(CC)CC4)c3)nn2)c1F [Example I-1]
11,201,CCCS(=O)(=O)Nc1ccc(F)c(-n2cc(-c3cncc(N4CCOCC4)c3)nn2)c1F [Example I-12]
12,1720,CCCS(=O)(=O)Nc1ccc(F)c(-n2cc(-c3cnn(C)c3C)nn2)c1F [Example I-14]
13,98,CCCS(=O)(=O)Nc1ccc(F)c(-n2cc(-c3cncc(N4CCN(C5CCC5)CC4)c3)nn2)c1F [Example I-59]
14,24,COc1cncc(-c2cn(-c3c(F)ccc(NS(=O)(=O)c4ccoc4)c3F)nn2)c1 [Example I-45]
15,107,CCCS(=O)(=O)Nc1ccc(F)c(-n2cc(-c3cncc(N4CCN(CC5CC5)CC4)c3)nn2)c1F [Example I-10]
16,327,CCS(=O)(=O)Nc1ccc(Cl)c(-n2cc(-c3cncc(OC)c3)nn2)c1F [Example I-40]
17,73,O=S(=O)(Nc1ccc(F)c(-n2cc(-c3cncc(Br)c3)nn2)c1Cl)c1ccoc1 [Example I-70]
18,1260,CCCS(=O)(=O)Nc1ccc(F)c(-n2cc(-c3cncc(F)c3)nn2)c1F [Example I-17]
19,292,COc1cncc(-c2cn(-c3c(F)ccc(NS(=O)(=O)c4cccnc4)c3F)nn2)c1 [Example I-42]
20,535,CCCS(=O)(=O)Nc1ccc(F)c(-n2cc(-c3cncc(C)c3)nn2)c1F [Example I-4]
21,10,C#CCN1CCN(c2cncc(-c3cn(-c4c(F)ccc(NS(=O)(=O)c5ccoc5)c4Cl)nn3)c2)CC1 [Example I-72]
22,4,O=S(=O)(Nc1ccc(F)c(-n2cc(-c3cncc(N4CCN(C5CC5)CC4)c3)nn2)c1Cl)c1ccoc1 [Example I-67]
23,1020,CCCS(=O)(=O)Nc1ccc(F)c(-n2cc(-c3cnc(NC4CCN(CCOC)CC4)nc3)nn2)c1F [Example I-13]
24,363,COc1cncc(-c2cn(-c3c(F)ccc(NS(=O)(=O)c4cc(F)ccc4F)c3F)nn2)c1 [Example I-38]
25,32,CCCS(=O)(=O)Nc1ccc(F)c(-n2cc(-c3cncc(N4CCN(C5CC5)CC4)c3)nn2)c1Cl [Example I-65]
26,44,CCCS(=O)(=O)Nc1ccc(F)c(-n2cc(-c3cncc(N4CCN(C(C)C)CC4)c3)nn2)c1Cl [Example I-63]
27,675,COCCS(=O)(=O)Nc1ccc(F)c(-n2cc(-c3cncc(N4CCN(C5CC5)CC4)c3)nn2)c1F [Example I-56]

row,EC50 [nM],Compound
1,928,CCCS(=O)(=O)Nc1ccc(F)c(-n2cc(-c3cncc(OCCN(C)C(C)C)c3)nn2)c1F [Example I-37]
2,358,CCCS(=O)(=O)Nc1ccc(F)c(-n2cc(-c3cncc(OCC)c3)nn2)c1F [Example I-35]
3,132,CCCS(=O)(=O)Nc1ccc(F)c(-n2cc(-c3cncc(N4CCN(C(C)(C)C)CC4)c3)nn2)c1F [Example I-9]
4,44,C#CCN1CCN(c2cncc(-c3cn(-c4c(F)ccc(NS(=O)(=O)CCC)c4Cl)nn3)c2)CC1 [Example I-73]
5,117,CC(C)CS(=O)(=O)Nc1ccc(F)c(-n2cc(-c3cncc(N4CCN(C)CC4)c3)nn2)c1F [Example I-24]
6,403,COc1cncc(-c2cn(-c3c(Cl)ccc(NS(=O)(=O)C(C)C)c3F)nn2)c1 [Example I-41]
7,480,COc1cncc(-c2cn(-c3c(F)ccc(NS(=O)(=O)CC4CC4)c3F)nn2)c1 [Example I-46]
8,506,CCCS(=O)(=O)Nc1ccc(F)c(-n2cc(-c3cncnc3)nn2)c1F [Example I-11]
9,493,CCCS(=O)(=O)Nc1ccc(F)c(-n2cc(-c3cncc(N4CCNCC4)c3)nn2)c1F [Example I-50]
10,55,CCCS(=O)(=O)Nc1ccc(F)c(-n2cc(-c3cncc(N4CCN(CC)CC4)c3)nn2)c1Cl [Example I-66]
11,82,CCCS(=O)(=O)Nc1ccc(F)c(-n2cc(-c3cncc(N4CCN(CCOCC)CC4)c3)nn2)c1F [Example I-3]
12,145,CCCS(=O)(=O)Nc1ccc(Cl)c(-n2cc(-c3cncc(OC)c3)nn2)c1F [Example I-39]
13,7,O=S(=O)(Nc1ccc(F)c(-n2cc(-c3cncc(N4CCN(CC5CC5)CC4)c3)nn2)c1Cl)c1ccoc1 [Example I-54]
14,61,O=S(=O)(Nc1ccc(F)c(-n2cc(-c3cncc(Cl)c3)nn2)c1Cl)c1ccoc1 [Example I-71]
15,87,CCCS(=O)(=O)Nc1ccc(F)c(-n2cc(-c3cncc(N4CCN(CCOC(C)C)CC4)c3)nn2)c1F [Example I-16]
16,88,CC(C)CS(=O)(=O)Nc1ccc(F)c(-n2cc(-c3cncc(N4CCN(CC5CC5)CC4)c3)nn2)c1F [Example I-28]
17,1450,CCCS(=O)(=O)Nc1ccc(F)c(-n2cc(-c3cncc(N(C)CCN4CCOCC4)c3)nn2)c1F [Example I-31]
18,75,CCCS(=O)(=O)Nc1ccc(F)c(-n2cc(-c3cncc(N4CCN(C5CC5)CC4)c3)nn2)c1F [Example I-18]
19,245,CC(C)S(=O)(=O)Nc1ccc(F)c(-n2cc(-c3cncc(N4CCN(C(C)(C)C)CC4)c3)nn2)c1F [Example I-20]
20,314,CC(C)N1CCN(c2cncc(-c3cn(-c4c(F)ccc(NS(=O)(=O)C(C)C)c4F)nn3)c2)CC1 [Example I-21]
21,273,CCCS(=O)(=O)Nc1ccc(F)c(-n2cc(-c3cncc(OC)c3)nn2)c1Cl [Example I-75]
22,38,CCCS(=O)(=O)Nc1ccc(F)c(-n2cc(-c3cncc(N4CCN(CC5CC5)CC4)c3)nn2)c1Cl [Example I-64]
23,1640,CCCS(=O)(=O)Nc1ccc(F)c(-n2cc(-c3ccc(N)nc3)nn2)c1F [Example I-5]
24,1230,CCCS(=O)(=O)Nc1ccc(F)c(-n2cc(-c3cncc(N(C)CCOC)c3)nn2)c1F [Example I-30]
25,71,CCCS(=O)(=O)Nc1ccc(F)c(-n2cc(-c3cncc(N4CCN(C5CCOC5)CC4)c3)nn2)c1F (stereo not drawn) [Example I-58]
26,159,COc1cncc(-c2cn(-c3c(F)ccc(NS(=O)(=O)c4ccco4)c3F)nn2)c1 [Example I-47]
27,68,C#CCN1CCN(c2cncc(-c3cn(-c4c(F)ccc(NS(=O)(=O)CCC)c4F)nn3)c2)CC1 [Example I-53]
